Source: patent US10851053B2, “Chemical compounds” (GlaxoSmithKline Intellectual Property Development Limited, priority 2016, dated 2020)
Values joined by “and” are separate entries in the source; they are usually repeats but may differ in a detail not shown here. Identical values can stand only once. Like-named read-outs stand apart in the source and are kept apart here.

Tested on: ATF4 translation (ATF4 pathway), SH-SY5Y-ATF4-NanoLuc cells
Assay: ATF4 cell based assay (ATF4 5'-UTR NanoLuc luciferase reporter, Thapsigargin induced cellular stress)
Settings: read-out: average ATF4 pathway inhibitory activity (IC50)
From the text: The ATF4 reporter assay measures the effect of Thapsigargin induced cellular stress on ATF4 expression. For this reporter assay, a stable cell line was created by transfecting SH-SY5Y cells with a plasmid containing the NanoLuc® luciferase gene fused to the 5′-UTR of ATF4, under the control of the CMV promoter. The ATF4 5′-UTR contains two open reading frames which mediate the cellular stress-dependent translation of the reporter gene. Clones stably expressing the reporter construct were isolated and selected based on the luminescence response to thapsigargin and inhibition of this signal by test compounds. Briefly, SH-SY5Y-ATF4-NanoLuc cells were challenged with Thapsigargin for 14-18 hours to determine the stress effect with or without test compounds.
Cells were propagated in growth media consisting of 90% DMEM F12 (InVitrogen #11320-033), 10% Fetal Bovine Serum (Gibco #10438-026), 5 mM Glutamax (Gibco #35050-061), 5 mM Hepes, (Gibco #15630-080), and 0.5 mg/ml Geneticin (Gibco #10131-027). Cells were prepared for the assay by removing all media from cells, washing the plated cells with phosphate buffered saline, and detached by adding a solution comprised of 10% Tryple express solution (InVitrogen12604-021) and 90% enzyme-free cell dissociation buffer HANKS base (Gibco 13150-016). The trypsin was deactivated by adding assay media comprised of 90% phenol-red free DMEM F12 (InVitrogen, 11039), 10% Fetal Bovine Serum (Gibco #10438-026), (5 mM Glutamax (Gibco #35050-061), 5 mM Hepes, (Gibco #15630-080), and 0.5 mg/ml Geneticin (Gibco #10131-027). Suspended cells were spun down at 300 g for 5 min, the supernatant was removed and the cell pellet was suspended in warm media (30-37° C.) comprised as above at (1e6 cell/ml).
Assay plates were prepared by adding 250 nL of compound stock solution in 100% DMSO to each well, followed by dispensing 20 microliters/well cell suspension to deliver 15-20 k cell/well. Cells were incubated for 1 hour at 37° C. Then, 5 μL of 1.5 μM or 1 μM of Thapsigargin (final concentration: 200-300 nM) was added to each well of cells. Assay plates containing cells were incubated for 14-18 hours at 37° C.
The measurement of luciferase produced by the ATF4 constructs was measured as follows. Aliquots of the Nano-Glo reagent (Nano-Glo® Luciferase Assay Substrate, Promega, N113, Nano-Glo® Luciferase Assay Buffer, Promega, N112 (parts of Nano-Glo® Luciferase Assay System, N1150) were brought to room temperature, the substrate and buffer were mixed according to manufacturer's instructions. The cell plates were equilibrated to room temperature. 25 microliters/well of the mixed Nano-Glo reagent were dispensed into assay wells and pulse spun to settle contents and the plate was sealed with film. The plates were incubated at room temperature for 1 hour before detecting luminescence on an Envision plate reader.
Compounds of the invention are tested for activity against ATF4 translation in the above assay.

[1] = SH-SY5Y-ATF4-NanoLuc cells challenged with Thapsigargin for 14-18 hours, average of two or more experimental runs

| IC50 [1] | Compound | IC50 [nM] |
| --- | --- | --- |
| < 100 nM | O=C(COc1ccc(Cl)cc1)NC[C@H]1CCN(CCCOc2ccc(Cl)cc2)C1 [Example 73, (R)-2-(4-chlorophenoxy)-N-((1-(3-(4-chlorophenoxy)propyl)pyrrolidin-3-yl)methyl)acetamide] |  |
| < 100 nM | O=C(COc1ccc(Cl)cc1)NC1CCC2(CC1)CCN(C(=O)COc1ccc(Cl)cc1)C2 (stereo not drawn) [Example 23, 2-(4-chlorophenoxy)-N-(2-(2-(4-chlorophenoxy)acetyl)-2-azaspiro[4.5]decan-8-yl)acetamide] |  |
| 1000 to 10000 nM | O=C(COc1ccc(Cl)cc1)NCC1CCN(C(=O)COc2ccc(Cl)nc2)C1 (single isomer, unassigned) [Example 11, 2-(4-chlorophenoxy)-N-((1-(2-((6-chloropyridin-3-yl)oxy)acetyl)pyrrolidin-3-yl)methyl)acetamide] |  |
| 1000 to 10000 nM | CC1(CNC(=O)COc2ccc(Cl)cc2)CCN(C(=O)COc2ccc(Cl)cc2)C1 (stereo not drawn) [Example 17, 2-(4-chlorophenoxy)-N-((1-(2-(4-chlorophenoxy)acetyl)-3-methylpyrrolidin-3-yl)methyl)acetamide] |  |
| < 100 nM | O=C(COc1ccc(Cl)cc1)NCC1CCN(C(=O)CCOc2ccc(Cl)cc2)C1 (stereo not drawn) [Example 14, 2-(4-chlorophenoxy)-N-((1-(3-(4-chlorophenoxy)propanoyl)pyrrolidin-3-yl)methyl)acetamide] |  |
| < 100 nM | O=C(COc1ccc(Cl)cc1)NCC1CN(CCCOc2ccc(Cl)cc2)CC1O (stereo not drawn) [Example 80, 2-(4-chlorophenoxy)-N-((1-(3-(4-chlorophenoxy)propyl)-4-hydroxypyrrolidin-3-yl)methyl)acetamide] |  |
| < 100 nM | O=C(COc1ccc(Cl)cc1)N[C@H]1[C@@H]2CN(CCCOc3ccc(Cl)cc3)C[C@@H]21 [Example 28, 2-(4-chlorophenoxy)-N-((1R,5S,6s)-3-(3-(4-chlorophenoxy)propyl)-3-azabicyclo[3.1.0]hexan-6-yl)acetamide] |  |
| < 100 nM | O=C(COc1ccc(Cl)cc1)NCC1CCN(C(=O)OCCc2ccc(Cl)cc2)C1 (stereo not drawn) [Example 15, 4-chlorophenethyl 3-((2-(4-chlorophenoxy)acetamido)methyl)pyrrolidine-1-carboxylate] |  |
| < 100 nM | O=C(COc1ccc(Cl)cc1)NOC1CCN(C(=O)CCOc2ccc(Cl)cc2)C1 (stereo not drawn) [Example 35, 2-(4-chlorophenoxy)-N-((1-(3-(4-chlorophenoxy)propanoyl)pyrrolidin-3-yl)oxy)acetamide] |  |
| 1000 to 10000 nM | O=C(COc1ccc(Cl)nc1)NCC1CCN(C(=O)COc2ccc(Cl)cc2)C1 (stereo not drawn) [Example 19, N-((1-(2-(4-chlorophenoxy)acetyl)pyrrolidin-3-yl)methyl)-2-((6-chloropyridin-3-yl)oxy)acetamide] |  |
| 1000 to 10000 nM | O=C(COc1ccc(Cl)cc1)N1CC2CN(C(=O)COc3ccc(Cl)cc3)CC2C1 (stereo not drawn) [Example 6, 1,1′-(tetrahydropyrrolo[3,4-c]pyrrole-2,5(1H,3H)-diyl)bis(2-(4-chlorophenoxy)ethanone)] |  |
| < 100 nM | CN(Cc1ccc(Cl)cc1)C(=O)N1CCC(CNC(=O)COc2ccc(Cl)cc2)C1 (stereo not drawn) [Example 79, N-(4-chlorobenzyl)-3-((2-(4-chlorophenoxy)acetamido)methyl)-N-methylpyrrolidine-1-carboxamide] |  |

Continued, compound first:

| Compound | IC50 [1] | IC50 [nM] |
| --- | --- | --- |
| O=C(COc1ccc(Cl)cc1)N[C@H]1[C@@H]2CN(CC(O)COc3ccc(Cl)cc3)C[C@@H]21 (stereo partly drawn) [Example 76, 2-(4-chlorophenoxy)-N-((1R,5S,6s)-3-(3-(4-chlorophenoxy)-2-hydroxypropyl)-3-azabicyclo[3.1.0]hexan-6-yl)acetamide] | < 100 nM |  |
| O=C(COc1ccc(Cl)cc1)N[C@H]1[C@@H]2CN(CCCOc3ccc(Cl)nc3)C[C@@H]21 [Example 65, 2-(4-chlorophenoxy)-N-((1R,5S,6s)-3-(3-((6-chloropyridin-3-yl)oxy)propyl)-3-azabicyclo[3.1.0]hexan-6-yl)acetamide] | 101 to 1000 nM |  |
| O=C(COc1ccc(Cl)c(Cl)c1)NCC1CCN(CCCOc2ccc(Cl)cc2)C1 (stereo not drawn) [Example 44, N-((1-(3-(4-chlorophenoxy)propyl)pyrrolidin-3-yl)methyl)-2-(3,4-dichlorophenoxy)acetamide] | < 100 nM |  |
| O=C(COc1ccc(Cl)cc1)NCC1CCN(CCCOc2ccc(Cl)cc2F)C1 (stereo not drawn) [Example 62, N-((1-(3-(4-chloro-2-fluorophenoxy)propyl)pyrrolidin-3-yl)methyl)-2-(4-chlorophenoxy)acetamide] | < 100 nM |  |
| O=C(COc1ccc(Cl)cn1)NCC1CCN(CCCOc2ccc(Cl)cc2)C1 (stereo not drawn) [Example 56, N-((1-(3-(4-chlorophenoxy)propyl)pyrrolidin-3-yl)methyl)-2-((5-chloropyridin-2-yl)oxy)acetamide] | 101 to 1000 nM |  |
| O=C(COc1ccc(Cl)cc1)NCC1CCN(C(=O)COc2cncc(Cl)c2)C1 (stereo not drawn) [Example 10, 2-(4-chlorophenoxy)-N-((1-(2-((5-chloropyridin-3-yl)oxy)acetyl)pyrrolidin-3-yl)methyl)acetamide] | 1000 to 10000 nM |  |
| O=C(COc1ccc(Cl)cc1)N[C@H]1[C@@H]2CN(CCCOc3ccc(Cl)cn3)C[C@@H]21 [Example 53, 2-(4-chlorophenoxy)-N-((1R,5S,6s)-3-(3-((5-chloropyridin-2-yl)oxy)propyl)-3-azabicyclo[3.1.0]hexan-6-yl)acetamide] | 101 to 1000 nM |  |
| O=C(COc1ccc(Cl)cc1)N1CCC2(CCN(C(=O)COc3ccc(Cl)cc3)C2)C1 [Example 26, 1,1′-(2,7-diazaspiro[4.4]nonane-2,7-diyl)bis(2-(4-chlorophenoxy)ethanone)] | 1000 to 10000 nM |  |
| O=C(COc1ccc(Cl)cc1)NCC1CCN(C(=O)COc2ccc(Cl)cc2)C1 (stereo not drawn) [Example 1, 2-(4-chlorophenoxy)-N-((1-(2-(4-chlorophenoxy)acetyl)pyrolidin-3-yl)methyl)acetamide] |  | 101 to 1000 |
| O=C(COc1ccc(F)cc1Cl)NCC1CCN(CCCOc2ccc(Cl)cc2)C1 (stereo not drawn) [Example 46, 2-(2-chloro-4-fluorophenoxy)-N-((1-(3-(4-chlorophenoxy)propyl)pyrrolidin-3-yl)methyl)acetamide] | 101 to 1000 nM |  |
| O=C(COc1ccc(Cl)cc1)NCC1CCN(CC(=O)Nc2ccc(Cl)cc2)C1 (stereo not drawn) [Example 4, 2-(4-chlorophenoxy)-N-((1-(2-((4-chlorophenyl)amino)-2-oxoethyl)pyrrolidin-3-yl)methyl)acetamide] | < 100 nM |  |
| O=C(COc1ccc(Cl)cc1)NC[C@@H]1CCN(C(=O)COc2ccc(Cl)cc2)C1 [Example 29, (S)-2-(4-chlorophenoxy)-N-((1-(2-(4-chlorophenoxy)acetyl)pyrrolidin-3-yl)methyl)acetamide] |  | 101 to 1000 |
| O=C(NCC1CCN(C(=O)COc2ccc(Cl)cc2)C1)C1CCc2cc(Cl)ccc2O1 (stereo not drawn) [Example 22, 6-chloro-N-((1-(2-(4-chlorophenoxy)acetyl)pyrrolidin-3-yl)methyl)chroman-2-carboxamide] | < 100 nM |  |
| O=C(COc1ccc(Cl)cc1)NCC1CCN(CCCOc2ccc(Cl)c(F)c2)C1 (stereo not drawn) [Example 64, N-((1-(3-(4-chloro-3-fluorophenoxy)propyl)pyrrolidin-3-yl)methyl)-2-(4-chlorophenoxy)acetamide] | 101 to 1000 nM and 127 nM |  |
| Cc1cc(OCCCN2CCC(CNC(=O)COc3ccc(Cl)cc3)C2)ccc1Cl (stereo not drawn) [Example 57, N-((1-(3-(4-chloro-3-methylphenoxy)propyl)pyrrolidin-3-yl)methyl)-2-(4-chlorophenoxy)acetamide] | < 100 nM |  |
